Test results published in paper PMC4382154, “Screening of the Pan-African Natural Product Library Identifies Ixoratannin A-2 and Boldine as Novel HIV-1 Inhibitors” (PLoS ONE, 2015).

Assays:
Type in all cases: cell-based
HIV-1Δvpu = HIV-1Δvpu replication in CEM-GXR cells; conditions: for fold less effective at inhibiting HIV-1Δvpu compared to HIV-1NL4-3: 75 μM, CEM-GXR cells; for EC50: Human immunodeficiency virus 1, CEM-GXR, 96 h, read-out: EC50 HIV-1Δvpu
Method: HIV-1Δvpu was constructed by digesting plasmid p210-13 3’ Δ-vpu with EcoRI and NheI enzymes. The resulting DNA fragment was then ligated into wild-type pNL4-3 plasmid digested with the same enzymes. HIV-1Δvpu and HIV-1NL4-3 viral stocks were prepared by transfection of HEK-293T cells, as previously described. Patient plasma-HIV-1 RNA sequences were analyzed for resistance mutations using the HIV Drug Resistance Database Genotype Resistance Interpretation Algorithm (hivdb.stanford.edu). Recombinant HIV-1NL4-3 expressing patient-derived HIV-1 sequences harboring resistance mutations to protease and reverse transcriptase inhibitors (HIV-1PR+RT), reverse transcriptase inhibitors (HIV-1RT), and integrase inhibitors (HIV-1INT) were generated by homologous recombination following co-transfection as reported.
(§1) CEM-GXR cells are an immortalized CD4+ T-lymphocyte line engineered that naturally express the HIV-1 coreceptor CXCR4 and have been further engineered to express the HIV-1 co-receptor CCR5 and a Tat-driven LTR-GFP expression cassette. As such, intracellular GFP expression indicates HIV-1 infection. Cultures of 10^5 CEM-GXR cells were seeded into 96-well plates with RPMI-1640 media (Sigma) supplemented with penicillin/streptomycin plus 20% fetal calf serum (R20+), infected with HIV-1 at a multiplicity of infection of 0.03 (to achieve 3% infected cells on Day 2), and incubated at 37°C and 5% CO2. 24 hours later, cells were pelleted at 750 g and resuspended in R20+ containing compound or 0.1% DMSO. […] Cells were then incubated at 37°C and 5% CO2 for an additional 72 h. 5,000 cells from each culture were measured for cell toxicity and GFP expression by flow cytometry. Flow cytometry data were analyzed using FlowJo v. 8.8.7 software (FlowJo LLC, Ashland, OR). […] Background GFP expression in uninfected cultures was set at 0.05% GFP-positive cells. For each experiment, all data points were obtained in triplicate. All data are reported as the mean ± s.e.m. from at least 3 independent experiments performed with different virus stocks and/or performed on different days. However, all experiments that compare HIV-1NL4-3 and mutant HIV-1 were performed in parallel. EC50 and CC50 values for each compound were calculated from at least four concentrations. Statistical analyses were performed using Student’s unpaired t test, with a p value < 0.05 plus a Bonferroni correction to adjust for multiple comparisons considered significant.
To investigate the mechanisms by which ixoratannin A-2 and boldine may block HIV-1 replication, we used a previously-reported HIV-1NL4-3 strain lacking the Vpu coding region (HIV-1Δvpu). We also constructed recombinant HIV-1NL4-3 strains harboring protease, reverse transcriptase, and/or integrase sequences of HIV-1 strains from patients who had developed resistance to the protease inhibitor Indinavir (IND), the non-nucleoside reverse transcriptase inhibitor Efavirenz (EFV), and/or the integrase inhibitor Raltegravir (RAL) (denoted HIV-1PR+RT, HIV-1RT, and HIV-1INT, respectively). Re-sequencing of the recombinant viruses confirmed the presence of multiple mutations known to confer resistance to IND, EFV, and/or RAL (Table 2).

[1] = system: HCV J4(1b)/JFH1(2a) chimera; assay: HCV replication assay in Huh-7.5 cells (NS5A flow cytometry); conditions: Hepatitis C virus, Huh7.5, 72 h
Method: The intergenotypic chimeric HCV used in this study—Bi-Gluc-J4(1b)/JFH1(2a) containing cell culture adaptive mutations in NS2 (T2996C) and NS3 (A4827T)—was previously described and subsequently modified to express Gaussia luciferase in the first cistron. HCV stocks used for infection were generated by electroporation of in vitro transcribed RNA into Huh-7.5.1 cells and pooling of supernatants harvested between 60–96 hr post-electroporation. HCV infectivity was determined by limiting dilution assay as previously described.
HCV cell culture was performed as described previously. Briefly, 4*10^4 Huh-7.5 cells were seeded into 24-well plates and incubated at 37°C and 5% CO2 overnight. Cells were then infected with HCV (multiplicity of infection = 0.3) for 6 hours, followed by removal of HCV and incubation with fresh medium containing compounds at stated concentrations. Cultures were then incubated for 72 hours, with no more than 0.1% DMSO present in culture medium. Cells were then trypsinized, resuspended in culture medium, and stained with the 9E10 alexa-fluor-conjugated antibody to NS5A [27]. Cells were fixed and analyzed for NS5A fluorescence by flow cytometry, and data were analyzed using FlowJo software. […] For each culture, NS5A fluorescence was determined as the percent gated cells relative to percent gated cells in infected cultures plus 0.1% DMSO. All experiments were performed in at least duplicate in at least two independent experiments.
We therefore assessed the effects of ixoratannin A-2, boldine, and BIT-225 on replication of HCV, which also encodes a viral ion channel and protease. Using an established cell culture system, Huh-7.5 cells were infected with an intergenotypic chimera between the J4 (genotype 1b) and JFH1 (genotype 2a) strain of HCV for 6 hours, followed by incubation with fresh medium containing compounds at defined concentrations. Infected cells were then incubated for an additional 72 hours. NS5A expression, a marker of HCV infection, was then detected by flow cytometry.

[2] = Cell toxicity in HIV-1 infected CEM-GXR cultures (forward/side scatter); conditions: human, HIV-1NL4-3-infected CEM-GXR cells (CD4+ T-lymphocyte line), Day 4
Method: as §1
To assess the effects of these eight compounds on cell viability and HIV-1 replication, we infected a GFP-reporter CEM CD4+ T cell line (CEM-GXR) with the NL4-3 strain of HIV-1 (HIV-1NL4-3). Briefly, cells were infected with HIV-1NL4-3 at a multiplicity of infection of 0.03 (Day 0), followed by removal of HIV-1 and addition of compound (or 0.1% DMSO vehicle control) 24 hours later (Day 1) and incubation for an additional 72 hours to allow HIV-1 spread (Days 2–4). On Days 2 and/or 4, the percent HIV-1 infected (i.e., GFP-expressing) cells was measured by flow cytometry. Cell viability was assessed by measuring the percentage of cells displaying normal forward- and side-scatter parameters in drug-treated, HIV-1 infected cultures compared to 0.1% DMSO-treated, HIV-1 infected control cultures. […] HIV-1NL4-3 replication was unaffected by the presence of 0.1% DMSO vehicle control (Fig. 2B).

[3] = read-out: inhibition of HCV replication

Compound	fold less effective at inhibiting HIV-1Δvpu compared to HIV-1NL4-3 (HIV-1Δvpu)	EC50 (HIV-1Δvpu)	EC50 ([1]; read-out: EC50 HCV replication)	inhibition at 30 µM [1, 3]	CC50 at 72 h [2]	inhibition at 50 µM [1, 3]
Oc1cc(O)c2c(c1)OC1(c3ccc(O)c(O)c3)Oc3c4c(c5c(c3C2C1O)OC1(c2ccc(O)c(O)c2)Oc2cc(O)cc(O)c2C5C1O)OC(c1ccc(O)c(O)c1)C(O)C4 (stereo not drawn) [ixoratannin A-2]	1.4 fold	52 µM	23 µM	> 50%	57.5 µM	–
COc1cc2c(cc1O)C[C@H]1c3c(cc(O)c(OC)c3-2)CCN1C [boldine]	1.3 fold	> 100 µM	–	–	> 100 µM	36%
